Reference: patent US7700646B2, “Compounds for use in the treatment of infection” (The University of London, School of Pharmacy, priority 2004, dated 2010)
Where “and” joins values, the source holds several entries; their conditions need not be identical. Identical values can stand only once.

Tests used:
[1] = system: porcine liver esterase; assay: Esterase sensitivity; format: in vitro ADME; conditions: porcine liver esterase (Sigma), 10 min at 37° C.
Procedure: The product of example 1 was tested for in esterase sensitivity as compared to ECG using commercially available porcine liver esterase (Sigma).

[2] = system: EMRSA-15; assay: MIC of compound alone, broth dilution; format: cell-based, Staphylococcus aureus; conditions: MHB + 2% NaCl, 35° C., 24 h
Procedure: (§1) Bacterial strains: S. aureus BB568 (COL-type strain that carries mecA and pT181) was provided by Professor B. Berger-Bächi. EMRSA-15 and EMRSA-16 were clinical isolates from the Royal Free Hospital, London.
(§2) Antibacterial susceptibility testing: Minimum Inhibitory Concentration (MIC) was determined by both broth and agar dilution techniques. Broth MIC testing was performed in 96-well microtitre trays with an inoculum of about 10^4 cfu in 100 μL of Mueller-Hinton broth (MHB) (Oxoid, Basingstoke, United Kingdom) supplemented with 2% NaCl. MIC determinations by agar dilution were carried out using Mueller-Hinton agar (Oxoid) with an inoculum of about 10^4 organisms per spot. For both methods, MIC values were obtained after incubation at 35° C. for 24 h. S. aureus ATCC29213 was used as the standard.

[3] = system: EMRSA-16; assay: MIC of compound alone, broth dilution; format: cell-based, Staphylococcus aureus; conditions: MHB + 2% NaCl, 35° C., 24 h
Procedure: as §1, §2

[4] = system: S. aureus BB568; assay: MIC of compound alone, broth dilution; format: cell-based, Staphylococcus aureus; conditions: 35° C., 24 h
Procedure: as §1, §2

[5] = system: EMRSA-15; assay: MIC of oxacillin in absence or presence of fixed concentration of compound; format: cell-based, Staphylococcus aureus
Procedure: as §1, §2
(§3) With the amide derivatives (21 and 24) in hand, their efficacy as modulators for β-lactam resistance in S. aureus was evaluated by determining their capcity to reduce the minimum inhibitory concentration (MIC) of oxacillin against MRSA strains BB 568, EMRSA-15 and EMRSA-16 as described in example 2.
(§4) With the B-ring modified analogues 47 and 48 in hand, their efficacy as modulators for β-lactam resistance in S. aureus was evaluated by determining their capacity to reduce the minimum inhibitory concentration (MIC) of oxacillin against MRSA strains BB 568, EMSRA-15 and EMSRA-16 (Table 5)

[6] = system: EMRSA-16; assay: as above; format: cell-based, Staphylococcus aureus
Procedure: as §1, §2, §3, §4

[7] = system: S. aureus BB568; assay: as above; format: cell-based, Staphylococcus aureus; conditions: BB 568
Procedure: as §1, §2, §3, §4

[8] = system: MRSA strains BB 568, EMRSA-15 and EMRSA-16; assay: Intrinsic antibacterial activity, summary over three strains; format: cell-based, Staphylococcus aureus; conditions: compound alone, in words
Procedure: as §1, §2
(§5) Sub-inhibitory concentrations (6.25, 12.5 and 25 mg/L) of both compounds were effective in reducing the MIC of all three strains examined.

[9] = system: MRSA strains BB 568, EMRSA-15 and EMRSA-16; assay: Modulation of oxacillin resistance, summary over three strains; format: cell-based, Staphylococcus aureus; conditions: for potency as oxacillin sensitiser compared with ECg: 6.25 mg/L of catechin gallate
Procedure: as §1, §2, §5
At a concentration of 25 mg/L, ECg and the two analogues (47 and 48) fully sensitised each of the three MRSA strains to oxacillin, reducing the MICs to less than 0.5 mg/L, a figure well below the clinically-relevant breakpoint for β-lactam antbiotics.

[10] = system: MRSA strain BB568; conditions: cited from earlier work; for MIC of oxacillin in combination with compound: fixed sub-inhibitory concentration of compound
[11] = system: 40 MRSA strains; conditions: all 40 MRSA strains; cited from earlier work
[12] = system: EMRSA-16 cells; assay: Binding of catechins to staphylococcal cells (HPLC of unbound catechin); parameters: species or system Staphylococcus aureus; conditions: compound added alone
From the text: The method is based on Hashimoto, T. et al 1999.

[13] = Staphylococcus aureus, read-out: MIC
[14] = Staphylococcus aureus, BB568, BB 568, MHB + 2% NaCl, read-out: MIC
[15] = in presence of 12.5 mg/L compound
[16] = in presence of 25 mg/L compound
[17] = in presence of 6.25 mg/L compound
[18] = in presence of 12.5 mg/L compound, listed as ECG
[19] = Staphylococcus aureus, absence of compound, 35° C., 24 h

| Structure (SMILES) | MIC [2] | MIC [3] | MIC ([4]; BB 568, MHB + 2% NaCl) | Oxacillin MIC [5, 15] | Oxacillin MIC [6, 15] | Oxacillin MIC [6, 16] | Oxacillin MIC [7, 15] | Oxacillin MIC [7, 16] | intrinsic antibacterial activity [8] | Oxacillin MIC [5, 17] | Oxacillin MIC [5, 16] | Oxacillin MIC [6, 17] | Oxacillin MIC [7, 17] [mg/L] | MIC of oxacillin in combination with compound [10] | further results |
| --- | --- | --- | --- | --- | --- | --- | --- | --- | --- | --- | --- | --- | --- | --- | --- |
| O=C(N[C@@H]1Cc2c(O)cc(O)cc2O[C@@H]1c1ccc(O)c(O)c1)c1cc(O)c(O)c(O)c1 [Ex 1] | 128/256 | 128/128 | 128/256 | 1/1 | 32/64 | 1/1 | 32/64 | 4/8 | extremely weak intrinsic antibacterial activity |  |  |  |  |  | hydrolysis by esterase [1]: not affected; MIC [2, 13]: 256 µg/mL; MIC [3, 13]: 128 µg/mL; MIC [4, 14]: 256 µg/mL; Oxacillin MIC, each of the three MRSA strains [9, 16]: able to reduce the resistance to oxacillin of all three strains |
| O=C(O[C@@H]1Cc2c(O)cc(O)cc2O[C@@H]1c1cccc(O)c1)c1cc(O)c(O)c(O)c1 [Compound 47, (−)-3-hydroxy B ring modified (−)-ECg] | >128 µg/mL | 128 µg/mL | >128 µg/mL | ≦0.5 mg/L | 1 mg/L | ≦0.5 mg/L | 2 mg/L | ≦0.5 mg/L | little or no intrinsic antibacterial activity | 2 mg/L | ≦0.5 mg/L | 32 mg/L | 16 |  | potency as oxacillin sensitiser compared with ECg [9]: less potent than the natural compound |
| O=C(O[C@@H]1Cc2c(O)cc(O)cc2O[C@@H]1c1cc(O)cc(O)c1)c1cc(O)c(O)c(O)c1 [Compound 48, (−)-3,5-dihydroxy B ring modified (−)-ECg] | 64 µg/mL | 32 µg/mL | 128 µg/mL | ≦0.5 mg/L | ≦0.5 mg/L | ≦0.5 mg/L | 1 mg/L | ≦0.5 mg/L | weak to moderate anti-staphylococcal activity | 2 mg/L | ≦0.5 mg/L | 64 mg/L | 16 |  | potency as oxacillin sensitiser compared with ECg [9]: less potent than the natural compound |
| Oc1cc(O)c2c(c1)O[C@H](c1cc(O)c(O)c(O)c1)[C@H](O)C2 [EGC, epigallocatechin] |  |  |  |  |  |  |  |  |  |  |  |  |  | inactive |  |
| O=C(O[C@@H]1Cc2c(O)cc(O)cc2O[C@@H]1c1ccc(O)c(O)c1)c1cc(O)c(O)c(O)c1 [ECg, (−)-epicatechin gallate, reference compound] |  |  |  | ≦0.5 mg/L | ≦0.5 mg/L | ≦0.5 mg/L | ≦0.5 mg/L | ≦0.5 mg/L |  | ≦0.5 mg/L | ≦0.5 mg/L | ≦0.5 mg/L | 1 | 1 µg/mL | reduction of β-lactam MIC [11]: reduced the MIC values to the susceptibility breakpoint or below; Binding (%) [12]: 22%; hydrolysis by esterase [1]: totally hydrolysed; Oxacillin MIC [6, 18]: 1 mg/L; Oxacillin MIC [7, 18]: 1 mg/L |
| O=C(N[C@H]1Cc2c(O)cc(O)cc2O[C@@H]1c1ccc(O)c(O)c1)c1cc(O)c(O)c(O)c1 [Compound 24] |  |  |  |  |  | 256/512 |  | 64/64 | extremely weak intrinsic antibacterial activity |  | significant degree of sensitisation and 2/4 |  |  |  | MIC [2, 13]: 256 µg/mL; MIC [3, 13]: 128 µg/mL; MIC [4, 14]: 256 µg/mL |
| Cc1onc(-c2ccccc2)c1C(=O)N[C@@H]1C(=O)N2[C@@H]1SC(C)(C)[C@@H]2C(=O)O [Oxacillin, oxacillin, reference compound] |  |  |  |  |  |  |  |  |  |  |  |  |  |  | MIC [5, 19]: 32 µg/mL; MIC [6, 19]: 512 µg/mL; Oxacillin MIC ([7]; absence of compound, 35° C., 24 h, listed as Oxacillian): 256 mg/L; MIC ([7]; Staphylococcus aureus, BB568, absence of compound, 35° C., 24 h): 256 µg/mL; MIC for oxacillin ([10]; oxacillin alone): 256 µg/mL |
| O=C(O[C@@H]1Cc2c(O)cc(O)cc2O[C@@H]1c1cc(O)c(O)c(O)c1)c1cc(O)c(O)c(O)c1 [EGCg, epigallocatechin gallate] |  |  |  |  |  |  |  |  |  |  |  |  |  | 8 µg/mL | Binding (%) [12]: 16.2% |
